{"source": "patent US20120015925A1", "about": "“NOVEL BENZOTHIAZEPINE AND BENZOTHIEPINE COMPOUNDS” (ASAHI KASEI PHARMA CORPORATION, priority 2004, published 2012)", "target": "T1, human IBAT transporter in which alanine at position 171 has been substituted with serine (Homo sapiens, UniProt Q12908)", "T1 sequence (Q12908 1-348)": "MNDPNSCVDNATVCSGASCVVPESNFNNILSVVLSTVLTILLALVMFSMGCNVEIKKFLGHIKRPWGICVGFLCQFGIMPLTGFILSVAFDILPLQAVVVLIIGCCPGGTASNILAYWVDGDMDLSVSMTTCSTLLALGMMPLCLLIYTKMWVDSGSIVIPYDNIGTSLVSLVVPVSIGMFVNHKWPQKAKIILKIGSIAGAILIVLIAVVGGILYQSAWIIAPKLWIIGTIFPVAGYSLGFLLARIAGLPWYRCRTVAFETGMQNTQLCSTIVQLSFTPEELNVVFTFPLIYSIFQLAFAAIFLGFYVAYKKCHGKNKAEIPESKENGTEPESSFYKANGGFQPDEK", "test": "In vitro assay using Cos 7 cells, human IBAT with alanine 171 substituted with serine", "assay_type": "cell-based", "conditions": "10 nM test compound"}
{"molecule": "CCCCC1(CCCC)CS(=O)(=O)c2ccc(N(C)C)cc2C(c2cccc(NC(=S)CCCCC[N+]34CCC(CC3)CC4)c2)N1.[Br-]", "note": "(stereo not shown) [EXAMPLE 1, 1-{5-[3-(3,3-dibutyl-7-dimethylamino-1,1-dioxo-2,3,4,5-tetrahydro-1,4-benzothiazepine-5-yl)phenylthiocarbamoyl]pentyl}-1-azoniabicyclo[2.2.2]octane bromide]", "values": [{"measurement": "Cos 7 WITH HUMAN IBAT IN WHICH 171ST ALANINE IS SUBSTITUTED WITH SERINE INHIBITION (%) AT TEST COMPOUND CONCENTRATION OF 10 nM", "result": 53, "unit": "%"}]}
